Assay results from publication PMC5996347, “2-Mercapto-Quinazolinones as Inhibitors of Type II NADH Dehydrogenase and Mycobacterium tuberculosis: Structure–Activity Relationships, Mechanism of Action and Absorption, Distribution, Metabolism, and Excretion Characterization” (ACS Infectious Diseases, 2018).
Converted amounts (≈) assume the structure as drawn. Like-named read-outs stand apart in the source and are kept apart here.

Assays:
M. tuberculosis H37Rv [1] = experiment: H37Rv MIC in GAST medium; type: cell-based, Mycobacterium tuberculosis
[2] = Calculated properties (StarDrop)
physchem [3] = type: physicochemical; settings: for solubility kinetic: water, kinetic from dmso stock
Method: The aqueous solubility of the test compounds was measured using laser nephelometry. Compounds were subject to serial dilution from 10 to 0.5 mM in DMSO. An aliquot was then mixed with Milli-Q water to obtain an aqueous dilution plate with a final concentration range of 250–12 μM, with a final DMSO concentration of 2.5%. Triplicate aliquots were transferred to a flat bottomed polystyrene plate which was immediately read on the NEPHELOstar (BMG Lab Technologies). The amount of laser scatter caused by insoluble particulates (relative nephelometry units, RNU) was plotted against compound concentration using a segmental regression fit, with the point of inflection being quoted as the compounds aqueous solubility (μM).

[4] = test system: cyd knockout strain (cydC::aph); type: cell-based, Mycobacterium tuberculosis
M. tuberculosis H37Rv [5] = experiment: microbe, parasite or virus in culture; type: cell-based; settings: Mycobacterium tuberculosis
physchem [6] = type: physicochemical; settings: pH 7.4
Method: The chromatographic hydrophobicity index (CHI) was determined according the method previously described.[43],[44] Briefly, test compounds were prepared as 0.5 mM solutions in 50:50 acetonitrile/water and analyzed by reversed-phase HPLC-UV (wavelength 254 nm) using a Phenomenex Luna C18 100 Å, 150 × 4.6 mm, 5 μm column with a gradient of aqueous phase (50 mM ammonium acetate (pH 7.4)) and mobile phase (acetonitrile). By plotting the retention time of a set of reference compounds against known CHI values, the CHI value of test compounds was calculated according to their retention time.

[7] = target: T1, recombinant MBP-MtNdh (MTb NDH-2) (Mycobacterium tuberculosis, UniProt P95160); experiment: Ndh activity assay (NADH oxidation at 340 nm); type: biochemical; settings: NADH 250 μM, Q2 40 μM; mean ± SD, Figure 6 inset; read-out: IC50 against MBP-MtNdh
T1 construct: The ORF corresponding to Rv1854c was codon optimized for E. coli; made in house; host or cells: E. coli BL21 (DE3) pLysS
T1 sequence (P95160 whole entry): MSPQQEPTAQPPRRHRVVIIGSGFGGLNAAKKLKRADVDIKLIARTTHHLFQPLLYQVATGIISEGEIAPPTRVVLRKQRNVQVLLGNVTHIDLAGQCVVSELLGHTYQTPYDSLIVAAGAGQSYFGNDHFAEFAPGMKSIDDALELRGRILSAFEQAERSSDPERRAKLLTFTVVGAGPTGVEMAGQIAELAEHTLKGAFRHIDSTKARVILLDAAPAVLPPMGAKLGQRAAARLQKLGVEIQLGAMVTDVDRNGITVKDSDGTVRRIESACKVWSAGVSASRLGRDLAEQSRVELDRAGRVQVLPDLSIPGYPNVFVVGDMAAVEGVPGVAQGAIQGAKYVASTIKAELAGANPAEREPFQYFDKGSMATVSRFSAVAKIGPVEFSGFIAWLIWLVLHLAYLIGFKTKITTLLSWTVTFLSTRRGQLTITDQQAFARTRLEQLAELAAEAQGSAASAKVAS

[8] = type: in vitro ADME; settings: female, CD1, mouse, 0.5 μM, pH 7.4
Method: Test compound (0.5 μM) was incubated with female CD1 mouse liver microsomes (Xenotech LLC; 0.5 mg/mL, 50 mM potassium phosphate buffer, pH 7.4), and the reaction started with addition of excess NADPH (8 mg/mL, 50 mM potassium phosphate buffer, pH 7.4). Immediately, at time zero, and then at 3, 6, 9, 15, and 30 min, an aliquot (50 μL) of the incubation mixture was removed and mixed with acetonitrile (100 μL) to stop the reaction. Internal standard was added to all samples; the samples were centrifuged to sediment precipitated protein, and the plates were then sealed prior to UPLC-MS/MS analysis using a Quattro Premier XE (Waters Corporation, USA). XLfit (IDBS, UK) was used to calculate the exponential decay and consequently the rate constant (k) from the ratio of peak area of test compound to internal standard at each time point. The rate of intrinsic clearance (Cli) of each test compound was then calculated using the following calculation. [drawing 1] where V (mL/mg protein) is the incubation volume/mg protein added and microsomal protein yield is taken as 52.5 mg protein/g liver. Verapamil (0.5 μM) was used as a positive control to confirm acceptable assay performance.

piniBAC reporter strain = type: cell-based, Mycobacterium tuberculosis; settings: upregulation of iniBAC promoter
[9] = target: T1, recombinant MBP-MtNdh (MTb NDH-2); set-up: method as in PMID 15767566; settings: range covering Figure 6 and literature; read-out: IC50 against NDH-2 (text, chlorpromazine); cited from earlier work
M. tuberculosis H37Rv [10] = experiment: Extracellular flux analysis (oxygen consumption rate); settings: 1 at 39 μM, 7 at 45 μM
Mouse pharmacokinetics = type: in vivo, female C57Bl/6 mice; settings: for AUC(0-t) / Cmax: 10 mg/kg; for AUC: whole blood, single rising oral dose
Method: Test compound was dosed as a bolus solution intravenously at 3 mg free base/kg (dose volume: 5 mL/kg; dose vehicle: 10% DMSO; 40% PEG400; 50% saline) to female C57Bl/6 mice (n = 3) or dosed orally by gavage as a suspension at 10 or at 5, 30, or 100 mg free base/kg (dose volume: 10 mL/kg; dose vehicle: 1.0% carboxy methyl cellulose) to female C57Bl/6 mice (n = 3/dose level). Blood samples were taken from each mouse tail vein at predetermined time points postdose, mixed with nine volumes of distilled water, and stored frozen until UPLC-MS/MS analysis. Pharmacokinetic parameters were derived from the blood concentration time curve using PK Solutions software v 2.0 (Summit Research Services, USA).

HepG2 [11] = experiment: cells; settings: Homo sapiens, HepG2, read-out: HepG2 IC50
[12] = type: in vitro ADME; settings: mouse, plasma
Method: In brief, a 96-well equilibrium dialysis apparatus was used to determine the free fraction in plasma for each compound (HT Dialysis LLC, Gales Ferry, CT). Membranes (12–14 kDaA cutoff) were conditioned in deionized water for 60 min, followed by conditioning in 80:20 deionized water/ethanol overnight and then rinsed in water and isotonic buffer before use. Mouse plasma from appropriate species was removed from the freezer and allowed to thaw on the day of experiment. Thawed plasma was then centrifuged (Allegra X12-R, Beckman Coulter, USA) and spiked with test compound (final concentration 10 μg/mL), and 150 μL aliquots (n = 3 replicate determinations) were loaded into the 96-well equilibrium dialysis plate. Dialysis against isotonic buffer (150 μL) was carried out for 5 h in a temperature controlled incubator at ca. 37 °C (Barworld scientific Ltd., UK) using an orbital microplate shaker at 100 rpm (Barworld scientific Ltd., UK). At the end of the incubation period, 50 μL aliquots of plasma or buffer were transferred into a 96-well deep plate and the composition in each well was balanced with control fluid (50 μL), such that the volume of buffer to plasma is the same. Sample extraction was performed by the addition of 200 μL of acetonitrile containing an appropriate internal standard. Samples were allowed to mix for 1 min and then centrifuged at 3000 rpm in 96-well blocks for 15 min (Allegra X12-R, Beckman Coulter, USA) after which 150 μL of supernatant was removed to 50 μL of water. All samples were analyzed by UPLC-MS/MS on a Quattro Premier XE Mass Spectrometer (Waters Corporation, USA). The unbound fraction was determined as the ratio of the peak area in buffer to that in plasma.

[13] = mouse liver microsomes
in vitro = in vitro ADME; settings: PAMPA, pH 7.4
Method: The permeability was performed using a 96-well precoated BD Gentest PAMPA plate (BD Biosciences, U.K.). Each well was divided into two chambers: donor and acceptor, separated by a lipid-oil-lipid trilayer constructed in a porous filter. The effective permeability, Pe, of the compound was measured at pH 7.4. Stock solutions (5 mM) of the compound were prepared in DMSO. The compound was then further diluted to 10 μM in phosphate buffered saline at pH 7.4. […] The compound dissolved in phosphate buffered saline was then added to the donor side of the membrane, and phosphate buffered saline without compound was added to the acceptor side. The PAMPA plate was left at room temperature for 5 h; after which time, an aliquot (100 μL) was then removed from both acceptor and donor compartments and mixed with acetonitrile (80 μL) containing an internal standard: donepezil at 50 ng/mL). The samples were centrifuged (10 min, 5 °C, 3270g) to sediment precipitated protein and sealed prior to UPLC-MS/MS analysis using a Quattro Premier XE (Waters Corp, USA). Pe was calculated as shown in the below equation. [drawing 2] where CA(t) = peak area of compound present in acceptor well at time (t) = 18 000 s; Cequi = [CD(t) × VD + CA(t) × VA]/(VD + VA); A = filter area; VD = donor well volume; VA = acceptor well volume; t = incubation time; CD(t) = peak area of compound present in donor well at time (t) = 18 000 s. Recovery of compound from donor and acceptor wells was calculated, and data was only accepted when recovery exceeded 70%.

HepG2 [14] = settings: human
MTb H37Rv = experiment: Intracellular ATP levels (BacTiter-Glo); settings: 24 h drug exposure
M. tuberculosis = experiment: microbe, parasite or virus in culture; type: cell-based; settings: Mycobacterium tuberculosis; read-out: MIC (internal control reference compound)
[15] = Mycobacterium tuberculosis, H37RV, read-out: GAST MIC
[16] = female, C57Bl/6, mouse, in vivo
[17] = female, C57Bl/6, mouse, in vivo, po
[18] = Mycobacterium tuberculosis, H37RV, read-out: GAST MIC in ng/mL

| SMILES | MIC (M. tuberculosis H37Rv [1]; [15]) [µM] | solubility kinetic (physchem [3]) [µM] | MIC (M. tuberculosis H37Rv [5]; read-out: 7H9-ADC MIC) [µM] | chromatographic logD (physchem [6]) | IC50 [7] [µM] | AUC(0-t) (Mouse pharmacokinetics; [17]) [ng·h/mL] | Cmax (Mouse pharmacokinetics; [17]) [ng/mL] | MIC (M. tuberculosis H37Rv [1]; [18]) [ng/mL] | IC50 (HepG2 [11]) [µM] | Kinetic solubility (physchem [3]) | PPB (% unbound) [12] [% unbound] | MIC (M. tuberculosis H37Rv [5]; read-out: 7H9-ADC MIC in ng/mL) [ng/mL] | Papp at 5 h, 10 μM (in vitro) [×10⁻⁶ cm/s] | other results |
| --- | --- | --- | --- | --- | --- | --- | --- | --- | --- | --- | --- | --- | --- | --- |
| O=C(CSc1nc2ccccc2c(=O)[nH]1)NCc1ccccc1 [Compound 2] | 5.9 | 109 (≈ 35.5 µg/mL) | 4.5 | 1.5 | 0.51 ± 0.05 | – | – | – | – | – | – | – | – | PFI [2]: 4.3; Cyd KO reporter [4]: Not likely QcrB inhibitor; Microsomal Cli, mouse [8]: Mouse 1.6 mL/min/g; pini-LUC reporter (piniBAC reporter strain): Not likely cell wall inhibitor |
| CN(C)CCCN1c2ccccc2Sc2ccc(Cl)cc21 [CPZ, chlorpromazine, reference compound] | – | – | – | – | 25 ± 2 | – | – | – | – | – | – | – | – | IC50 [9]: 10 to 25 µM |
| O=C(CSc1nc2ccccc2c(=O)[nH]1)NC1CCC(F)(F)CC1 [Compound 7, N-(4,4-Difluorocyclohexyl)-2-((4-oxo-3,4-dihydroquinazolin-2-yl)thio)acetamide] | 0.4 | 105 (≈ 37.1 µg/mL) | 0.4 | 1.5 | 0.0066 ± 0.004 | 1120 | 399 | 141 | > 50 | 111 (HCl salt) μM | 13 | 141 | 6.4 | Effect on maximal respiration after CCCP uncoupling (M. tuberculosis H37Rv [10]; CCCP 3 μM, compared to untreated control): significantly diminished maximal respiration; Effect on basal MTb OCR (M. tuberculosis H37Rv [10]; ~45 min, glucose or palmitate): minimal effect; Human microsomal metabolite identification (human liver microsomes): oxidation of the quinazolinone ring; GSH trapping: adducts formed (with and without human liver microsomes): GSH adducts 12 and 13, without microsomal activation; Clb (Mouse pharmacokinetics; [16]): 39 mL/min/kg; Vd (Mouse pharmacokinetics; [16]): 1 L/kg; bioavailability (Mouse pharmacokinetics; [16]): 29%; AUC (Mouse pharmacokinetics; female, C57Bl/6, mouse, 5 mg/kg, read-out: AUC at 5 mg/kg oral (converted)): 9430 ng·h/mL; AUC (Mouse pharmacokinetics; female, C57Bl/6, mouse, 30 mg/kg, read-out: AUC at 30 mg/kg oral (converted)): 2190 ng·h/mL; AUC (Mouse pharmacokinetics; female, C57Bl/6, mouse, 100 mg/kg, read-out: AUC at 100 mg/kg oral (converted)): 2200 ng·h/mL; half-life (Mouse pharmacokinetics; female, C57Bl/6, whole blood, C57 mouse PK at 3 iv and 10 po (mg/kg), 1 free base, 7 HCl salt): 1.3 h; Dose linearity (AUC comparison) (Mouse pharmacokinetics; mouse, in vivo, po, 100 mg/kg): no dose linearity was observed; Mouse microsomal metabolite identification [13]: a small amount of amide bond cleavage as well as oxidation of the quinazolin-4(3H)-one ring; HepG2 cytotoxicity (in words) (HepG2 [14]): no HepG2 cytotoxicity was observed |
| COc1nc2ccc(Br)cc2cc1[C@@H](c1ccccc1)[C@@](O)(CCN(C)C)c1cccc2ccccc12 [bedaquiline] | – | – | – | – | – | – | – | – | – | – | – | – | – | Cellular ATP levels in MTb (MTb H37Rv): depletion of cellular ATP levels |
| NNC(=O)c1ccncc1 [Isoniazid, isoniazid] | – | – | – | – | – | – | – | – | – | – | – | – | – | MIC (M. tuberculosis): 0.2 µM (≈ 0.0274 µg/mL) |
| O=C(CSc1nc2ccccc2c(=O)[nH]1)NCC1CCC(F)(F)CC1 [Compound 11, N-((4,4-Difluorocyclohexyl)methyl)-2-((4-oxo-3,4-dihydroquinazolin-2-yl)thio)acetamide] | 0.8 | 250 (≈ 91.9 µg/mL) | 1.1 | 1.6 | 0.026 ± 0.006 | 2140 | 1110 | 294 | > 50 | >250 µM | 21 | 294 | 6.5 | MIC (M. tuberculosis H37Rv [1]; read-out: GAST MIC): 0.8 µM |
